Tests used:
[1] = test system: normal human lung fibroblasts; assay: Procollagen Type 1 C-Peptide (PIPC) EIA in culture media of TGFβ-treated fibroblasts; type: cell-based; conditions: fibroblasts treated with TGFβ, 24 hours, procollagen ELISA
Method: (§1) Briefly, normal human lung fibroblasts (Lonza #CC-2512; cell passage numbers 2 through 5 were used for all experiments) were seeded (Day 0) and cultured in Dulbecco's modified Eagle medium (DMEM) supplemented with 10% fetal bovine serum (FBS), penicillin, streptomycin and glutamax (Invitrogen) at 37° C. in a humidified incubator with 5% CO2 overnight. On Day 1, cells were harvested, washed with phosphate buffered saline (PBS), and then incubated for 48 hours in fresh serum-free DMEM supplemented with penicillin, streptomycin, and glutamax.
(§2) After this 24 hour incubation, procollagen type 1 levels were measured by collecting culture media, centrifuging to pellet cellular debris, and stored at −80° C. Procollagen Type 1 C-Peptide (PIPC) was quantified using the (PIP) EIA kit (Clontech, Cat. No. MK101) according to manufacturer's instructions. The TGFβ-treated fibroblasts of this example were examined by ribosomal profiling (about 6×10^6 cells/10 cm plate) and western blot analysis (about 1×10^6 cells/well of a 6-well plate).
as §1, with “(Lonza;” for “(Lonza #CC-2512;”, “CO2 conditions” for “CO2”, “glutamax. On Day 3, cells were harvested, resuspended in fresh serum-free DMEM containing silvestrol (1, 5, 10, 75, 100, 500, or 1000 nM) and 10 ng/ml TGFβ, and cultured for 24 hours. Controls included untreated cells and cells treated with only TGFβ.” for “glutamax.”
as §2, with “kit (Clontech)” for “kit (Clontech, Cat. No. MK101)”, “example are” for “example were”
The levels of α-SMA and procollagen type 1, markers of fibroblast transdifferentiation into myofibroblasts and a surrogate for fibrotic disease progression, were measured after a 24 hour incubation of fibroblasts in the presence or absence of TGFβ sieIF4A1 or siCont. The knockdown efficiency was determined by quantitating the eIF4A mRNA level by qPCR (data not shown) and assessing the protein level by western analysis (see FIG. 11).

[2] = test system: normal human lung fibroblasts; assay: Western blot of α-smooth muscle actin (α-SMA) in TGFβ-treated fibroblasts; type: cell-based; conditions: fibroblasts treated with TGFβ, 24 hours, western blot
Method: as §1, §2
TGFβ-dependent activation of the PI3K/Akt/mTOR and ERK pathways were also examined by western blot analysis (about 1×10^6 cells/well from a 6-well plate). Briefly, cells were washed with PBS and lysed in 1× cell lysis buffer (Cell Signaling Technology, Inc., Danvers, Mass.) for 15 minutes at 4° C. Lysates were briefly sonicated, clarified by centrifugation for 15 minutes at 14,000 rpm, and then supernatants were collected. Protein concentration in the soluble fraction was determined by BCA protein assay (Thermo Scientific, Rockford, Ill.). Samples of protein (20 μg) were resolved on 4-20% Bis-Tris gradient gel (Invitrogen, Carlsbad, Calif.) and transferred to nitrocellulose membrane. The resulting blots were blocked for 1 hour at room temperature with Odyssey blocking solution (LI-COR) and then incubated with primary antibodies at 4° C. overnight. The following day, each blot was washed three times for 10 minutes in TBST, and then incubated with goat anti-rabbit fluorescent conjugated secondary antibody (IRDye 800 CW at 1:20,000; LI-COR) for 1 hour at room temperature. The blots were washed and scanned, and then specific proteins were detected by using the LI-COR Odyssey infrared imager. The following antibodies were used at 1:1000 dilution: anti-α-actin (Sigma #A2547), anti-phospho-4EBP(Ser65), anti-phospho-rpS6(Ser235/236)(#4858), anti-phospho-ERK1/2(Thr202/Tyr204)(#4370), anti-phospho-p70S6K(Thr421/Ser424)(#9204), anti-phospho-pAKT(Ser473), anti-phospho-MNK(Thr197/202), and anti-β-actin (#4970). Unless otherwise indicated, the antibodies were from Cell Signaling Technology, Inc. (Danvers, Mass.).
as §1, with “(Lonza;” for “(Lonza #CC-2512;”, “CO2 conditions” for “CO2”, “glutamax. On Day 3, cells were harvested, resuspended in fresh serum-free DMEM containing silvestrol (1, 5, 10, 75, 100, 500, or 1000 nM) and 10 ng/ml TGFβ, and cultured for 24 hours. Controls included untreated cells and cells treated with only TGFβ.” for “glutamax.”
as §2, with “kit (Clontech)” for “kit (Clontech, Cat. No. MK101)”, “example are” for “example were”

| Structure (SMILES) | % Renormalization Collagen [1] | % Renormalization α-SMA [2] |
| --- | --- | --- |
| Nc1nccc2c1ncn2[C@@H]1O[C@H](CO)[C@@H](O)[C@H]1O [DZA, 3-deaza-adenosine] | + (+ = 0-30%) | + (+ = 0-30%) |
| CO[C@H]1C[C@@H]2CC[C@@H](C)[C@@](O)(O2)C(=O)C(=O)N2CCCC[C@H]2C(=O)O[C@H]([C@H](C)C[C@@H]2CC[C@@H](O)[C@H](OC)C2)CC(=O)[C@H](C)/C=C(\C)[C@@H](O)[C@@H](OC)C(=O)[C@H](C)C[C@H](C)/C=C/C=C/C=C/1C [Rapamycin] | ++ (++ = 30-60%) | + (+ = 0-30%) |
| O=C(Nc1ccc(Cl)cc1)Nc1ccc2nonc2c1 [BOCPU, 1-(benzo[c][1,2,5]oxadiazol-5-yl)-3-(4-chlorophenyl)urea] |  | +++ (+++ = >60%) |
| CC(C)CCN1c2nc(Nc3cc(F)c(O)c(F)c3)ncc2N(C)C(=O)C1C (stereo not shown) [BI-D1870, 2-[(3,5-Difluoro-4-hydroxyphenyl)amino]-7,8-dihydro-5,7-dimethyl-8-(3-methylbutyl)-6(5H)-pteridone] | +++ (+++ = >60%) | ++ (++ = 30-60%) |

— patent US9993494B2, “Compositions and methods for treating fibrotic disease” (eFFECTOR Therapeutics, Inc., priority 2014, dated 2018)
